Values after ≈ are worked out from the molar mass of the structure shown.

Consider four molecules from patent US20050250821A1, “Quaternary ammonium compounds in the treatment of water and as antimicrobial wash” (priority 2004, published 2005).

The test system of assay [1] is Salmonella Enteritidis (ATCC 13076). The assay is described as follows: microbe, parasite or virus in culture. The settings on record: Salmonella enterica, ATCC13076|ENTERITIDIS, 24 h, read-out: Minimum Inhibitory Concentration (MIC). As to the method:
A Petroff Hausser counting chamber was used to determine the level of inoculum.
An Optimax microtiter plate reader (Molecular Devices, Sunnyvale, Calif.) at 405 nm wavelength was used to measure the optical density of the suspension in each well. Plates were read kinetically over 24 h. The temperature was maintained at 35° C. All results reflect the average optical density measurements of four microtiter wells. […] A 100 μl aliquot of test organism and a 100 μl aliquot of experimental treatment were dispensed into individual microtiter plate wells.

In assay [2] the test system is E. coli O157:H7 (ATCC 35150). The assay is described as follows: Microtiter plate assay, CPC and propionic acid, abbreviated 4×4 matrix (Experiment 2). Format: cell-based. As to the method: (§1) The 4×4 matrix was either used in its entirety or in an abbreviated format as deemed appropriate by previous research conducted with similar organisms using a mixed organic acid blend.
(§2) Fifteen formulations were prepared using the incomplete 4×4 matrix design in Table 3.
(§3) Four test organisms—Salmonella Enteritidis (ATCC 13076), Staphylococcus aureus (ATCC 25923) E. coli O157:H7 (ATCC 35150) and Listeria monocytogenes (ATCC 15313)—were selected for use in these screening assays. […] Propionic acid was obtained from Kemin Americas, Inc (Des Moines, Iowa). S. Enteriditis, S. aureus and E. coli were grown aerobically in either Tryptic Soy Broth (TSB) or Nutrient Broth (NB) for 24 h at 37° C. L. monocytogenes was grown aerobically in Brain Heart Infusion Broth (BHI) for 24 h at 37° C. Test inocula were prepared to achieve a 10^6 cfu/ml suspension of bacterial cells. A Petroff Hausser counting chamber was used to determine the level of inoculum.
(§4) An Optimax microtiter plate reader (Molecular Devices, Sunnyvale, Calif.) at 405 nm wavelength was used to measure the optical density of the suspension in each well. Plates were read kinetically over 24 h. The temperature was maintained at 35° C. All results reflect the average optical density measurements of four microtiter wells. Treatments were prepared in sterile RO at the inclusion levels noted in Tables 1-2. A 100 μl aliquot of test organism and a 100 μl aliquot of experimental treatment were dispensed into individual microtiter plate wells. […] Positive controls consisting of 100 μl of test organism in NB or BHI and 100 μl of sterile water and a negative control consisting of 100 μl of NB (no organisms) and 100 μl of sterile water were also used.

For assay [3], the system named is Listeria monocytogenes (ATCC 15313). The description is as above. The class given is cell-based. The settings on record: L. monocytogenes. As to the method: as §1, §2, §3, §4
The subject of assay [4] is Staphylococcus aureus (ATCC 25923). The assay is described as follows: Microtiter plate assay, CPC and propionic acid, 4×4 matrix (Experiment 2). Format: cell-based. The settings on record: S. aureus. As to the method: as §1, §2, §3
An Optimax microtiter plate reader (Molecular Devices, Sunnyvale, Calif.) at 405 nm wavelength was used to measure the optical density of the suspension in each well. Plates were read kinetically over 24 h. The temperature was maintained at 35° C. All results reflect the average optical density measurements of four microtiter wells. Treatments were prepared in sterile RO at the inclusion levels noted in Tables 1-2. […]

For assay [5], the system named is E. coli O157:H7 (ATCC 35150). The assay is described as follows: Microtiter plate assay, CPC and mixed organic acids (Experiment 3). The class given is cell-based. As to the method: (§5) Fifteen formulations were prepared using the incomplete 4×4 matrix design in Table 8.
(§6) Two test organisms—Salmonella Enteritidis (ATCC 13076) and E. coli O157:H7 (ATCC 35150)—were screened. Salmonella Enteritidis was grown aerobically in Nutrient Broth (NB) for 24 h at 37° C. E. coli was grown in NB for 6 h at 37° C. Test inocula were prepared to achieve a 10^6 cfu/ml suspension of bacterial cells. A Petroff Hausser counting chamber was used to determine the level of inoculum.
(§7) An Optimax microtiter plate reader (Molecular Devices, Sunnyvale, Calif.) at 405 nm wavelength was used to measure the optical density of the suspension in each well. Plates were read kinetically over 24 h. The temperature was maintained at 35° C. All results reflect the average optical density measurements of four microtiter wells. Treatments were prepared in sterile RO at the inclusion levels noted in Table 1. A 100 μl aliquot of test organism and a 100 μl aliquot of experimental treatment were dispensed into individual microtiter plate wells. Bacteria cultures were diluted in Nutrient Broth (NB) prior to inoculation into the wells. Positive controls consisting of 100 μl of test organism in NB and 100 μl of sterile water and a negative control consisting of 100 μl of NB (no organisms) and 100 μl of sterile water were also used.

Assay [6] concerns Salmonella Enteritidis (ATCC 13076). The description is as above. Format: cell-based. As to the method:
as §5, §6, §7

Assay [7] has the same test system. The assay is described as follows: Microtiter plate assay, CPC and acetic acid (Experiment 4). The class given is cell-based. The settings on record: S. Enteritidis, acetic acid treatment alone. As to the method:
Test inocula were prepared to achieve a 10^6 cfu/ml suspension of bacterial cells. A Petroff Hausser counting chamber was used to determine the level of inoculum.
as §4, with “Table 1.” for “Tables 1-2.”, “NB” for “NB or BHI”

The test system is the same in assay [8]. The assay is described as follows: Microtiter plate assay, CPC and propionic acid, 3×3 matrix (Experiment 2). Format: cell-based. The settings on record: propionic acid alone, previous experimentation. As to the method:
as §1
Eight formulations were prepared using the incomplete 3×3 matrix design in Table 2. […] Positive and negative controls were included as described in Experiment 1.
Propionic acid was obtained from Kemin Americas, Inc (Des Moines, Iowa). S. Enteriditis, S. aureus and E. coli were grown aerobically in either Tryptic Soy Broth (TSB) or Nutrient Broth (NB) for 24 h at 37° C. L. monocytogenes was grown aerobically in Brain Heart Infusion Broth (BHI) for 24 h at 37° C.
Plates were read kinetically over 24 h. The temperature was maintained at 35° C. […] Treatments were prepared in sterile RO at the inclusion levels noted in Tables 1-2.

`C=O` [37% formaldehyde, formaldehyde]: the MIC in assay [1] was ~50 µg/mL (≈ 1670 µM).
On to `CCCCCCCCCCCCCCCC[n+]1ccccc1` [CPC, Cetylpyridinium chloride], for which the “propionic acid substituted by 1 ppm CPC” value is 50 ppm in assay [2] (E. coli O157:H7), > 200 ppm in assay [3] and “approximately 200 ppm” in assay [4]. Further, in assay [5], the “mixed organic acids substituted by 1 ppm CPC” value is given as 50 ppm. For the same molecule, the “mixed acids substituted by 1 ppm CPC” value in assay [6] is on record as 50 ppm.
On to `CC(=O)O` [acetic acid], for which the “concentration that completely inhibited growth” value in assay [7] worked out at 250 ppm.
Regarding `CCC(=O)O` [propionic acid], in assay [8], the “concentration sufficient to inhibit growth” value was 250 ppm. Moreover, the “concentration that completely inhibited growth” value in assay [2] (E. coli, propionic acid treatment alone) worked out at 250 ppm. In assay [4] (propionic acid alone, previous experimentation), the “concentration shown to inhibit growth” value is recorded as 250 ppm.
